Data reported in ChEMBL document CHEMBL5614409, “Discovery of potent HIV-1 NNRTIs by CuAAC click-chemistry-based miniaturized synthesis, rapid screening and structure optimization” (Eur J Med Chem, 2024).
≈ marks a conversion by molar mass, not a printed value.

How the values were obtained:
[1] = system: Human immunodeficiency virus 1; assay: Antiviral activity against HIV1 IIIB harboring RES056 mutant infected in MT4 cells assessed as reduction in virus induced cytopathic effect incubated for 5 days by MTT method; format: functional, organism-based; settings: Human immunodeficiency virus 1, IIIB, MT4, 120 h
[2] = molecular target: Human immunodeficiency virus type 1 reverse transcriptase (Human immunodeficiency virus 1) (UniProt Q72547); assay: Inhibition of HIV-1 reverse transcriptase incubated for 2 hrs in presence of template and viral nucleotides by ELISA relative to control; set-up: concentration or dose not given beside the values; settings: concentration not given here
[3] = Selectivity index, ratio of CC50 for human MT4 cells to EC50 for antiviral activity against HIV1 IIIB infected in MT4 cells; format: toxicity, cell-based; settings: read-out: Ratio CC50/EC50
[4] = system: Human immunodeficiency virus 1; assay: Antiviral activity against HIV1 IIIB harboring E138K mutant infected in MT4 cells assessed as reduction in virus induced cytopathic effect incubated for 5 days by MTT method; format: functional, organism-based; settings: Human immunodeficiency virus 1, IIIB, MT4, 120 h
[5] = system: Human immunodeficiency virus 1; assay: Antiviral activity against HIV1 IIIB harboring F227L/V106A double mutant infected in MT4 cells assessed as reduction in virus induced cytopathic effect incubated for 5 days by MTT method; format: functional, organism-based; settings: Human immunodeficiency virus 1, IIIB, MT4, 120 h
[6] = system: Human immunodeficiency virus 1; assay: Antiviral activity against HIV1 IIIB harboring L100I mutant infected in MT4 cells assessed as reduction in virus induced cytopathic effect incubated for 5 days by MTT method; format: functional, organism-based; settings: Human immunodeficiency virus 1, IIIB, MT4, 120 h
[7] = Cytotoxicity against human MT4 cells assessed as reduction in cell viability incubated for 5 days by MTT method; format: toxicity, cell-based; settings: time 5 day
[8] = system: Human immunodeficiency virus 1; assay: Antiviral activity against HIV1 IIIB infected in MT4 cells assessed as reduction in virus induced cytopathic effect incubated for 5 days by MTT method; format: functional, organism-based; settings: Human immunodeficiency virus 1, IIIB, MT4, 120 h
[9] = system: Human immunodeficiency virus 1; assay: Antiviral activity against HIV1 IIIB harboring Y188L mutant infected in MT4 cells assessed as reduction in virus induced cytopathic effect incubated for 5 days by MTT method; format: functional, organism-based; settings: Human immunodeficiency virus 1, IIIB, MT4, 120 h
[10] = Aqueous solubility of compound at pH 7.4 incubated for 24 hrs under shaking condition by HPLC method; format: physicochemical; settings: buffer
[11] = Aqueous solubility of compound at pH 7 incubated for 24 hrs under shaking condition by HPLC method; format: physicochemical; settings: buffer
[12] = Aqueous solubility of compound at pH 2 incubated for 24 hrs under shaking condition by HPLC method; format: physicochemical; settings: buffer
[13] = system: Human immunodeficiency virus 1; assay: Antiviral activity against HIV1 IIIB harboring Y181C mutant infected in MT4 cells assessed as reduction in virus induced cytopathic effect incubated for 5 days by MTT method; format: functional, organism-based; settings: Human immunodeficiency virus 1, IIIB, MT4, 120 h
[14] = molecular target: Human immunodeficiency virus type 1 reverse transcriptase (Human immunodeficiency virus 1, UniProt Q72547); assay: Inhibition of HIV-1 reverse transcriptase assessed as reduction in biotin-dUTP incorporation incubated for 2 hrs in presence of template and viral nucleotides by ELISA
[15] = system: Human immunodeficiency virus 1; assay: Antiviral activity against HIV1 IIIB harboring K103 N mutant infected in MT4 cells assessed as reduction in virus induced cytopathic effect incubated for 5 days by MTT method; format: functional, organism-based; settings: Human immunodeficiency virus 1, IIIB, MT4, 120 h
[16] = system: Human immunodeficiency virus 1; assay: Antiviral activity against HIV1 IIIB harboring Y188L mutant infected in MT4 cells assessed as fold increase in reduction of virus induced cytopathic effect incubated for 5 days by MTT method relative to A6N36; format: functional; settings: time 5 day

| SMILES | EC50 [1] | inhibition [2] | selectivity ratio [3] | EC50 [4] | EC50 [5] | EC50 [6] | CC50 at 120 h [7] | EC50 [8] | EC50 [9] | solubility thermodynamic at 24 h [10] | solubility thermodynamic at 24 h [11] | solubility thermodynamic at 24 h [12] | EC50 [13] | IC50 [14] | EC50 [15] | fold change (FC) [16] |
| --- | --- | --- | --- | --- | --- | --- | --- | --- | --- | --- | --- | --- | --- | --- | --- | --- |
| Cc1cc(/C=C/C#N)cc(C)c1Oc1ccnc(NC2CCN(Cc3cn(CC(=O)NC4CC4)nn3)CC2)n1 | 85 nM | 92.4% | 14000 | 7 nM | 66 nM | 9 nM | 21000 nM | 2 nM | 91 nM | 85 µg/mL (≈ 161 µM) | 198 µg/mL (≈ 375 µM) | 3190 µg/mL (≈ 6040 µM) | 7 nM | 40 nM | – | – |
| CCOC(=O)Cn1cc(CN2CCC(Nc3nccc(Oc4c(C)cc(/C=C/C#N)cc4C)n3)CC2)nn1 | – | 90.9% | 1740 | – | – | – | 18800 nM | 11 nM | – | – | – | – | – | 54 nM | – | – |
| Cc1cc(/C=C/C#N)cc(C)c1Oc1ccnc(NCCc2cn(Cc3ccc(S(N)(=O)=O)cc3)nn2)n1 | – | 69.2% | – | – | – | – | – | – | – | – | – | – | – | – | – | – |
| Cc1cc(C#N)cc(C)c1Oc1nc(Nc2ccc(C#N)cc2)nc(N)c1Br [ETRAVIRINE] | 38 nM | 52.3% | > 1090 | 4 nM | – | 7 nM | > 4600 nM | – | – | – | – | – | 12 nM | – | 3 nM | – |
| Cc1cc(C#N)cc(C)c1Oc1ccnc(NC2CCN(Cc3cn(Cc4ccc(C(N)=O)cc4)nn3)CC2)n1 | > 7690 nM | 94.1% | – | 14 nM | 1040 nM | 50 nM | 7690 nM | 2 nM | 97 nM | – | – | – | 11 nM | 55 nM | 7 nM | – |
| COC(=O)CCCn1cc(CN2CCC(Nc3nccc(Oc4c(C)cc(/C=C/C#N)cc4C)n3)CC2)nn1 | 2360 nM | 90.7% | 2680 | 36 nM | 830 nM | 28 nM | 16100 nM | 6 nM | 1090 nM | – | – | – | 28 nM | 73 nM | 8 nM | – |
| CCNC(=O)Cn1cc(CN2CCC(Nc3nc(Oc4c(C)cc(/C=C/C#N)cc4C)c4ccsc4n3)CC2)nn1 | 55 nM | – | 5010 | 17 nM | 36 nM | 7 nM | 19000 nM | 4 nM | 29 nM | 22.6 µg/mL (≈ 39.5 µM) | 25.1 µg/mL (≈ 43.9 µM) | 659 µg/mL (≈ 1150 µM) | 12 nM | 210 nM | – | 3 |
| COC(=O)Cn1cc(CN2CCC(Nc3nccc(Oc4c(C)cc(/C=C/C#N)cc4C)n3)CC2)nn1 | – | 91.7% | 732 | – | – | – | 26200 nM | 36 nM | – | – | – | – | – | 52 nM | – | – |
| Cc1ccccc1Cn1cc(CCNc2nccc(Oc3c(C)cc(C#N)cc3C)n2)nn1 | – | 55% | – | – | – | – | – | – | – | – | – | – | – | – | – | – |
| Cc1cc(/C=C/C#N)cc(C)c1Oc1ccnc(NC2CCN(Cc3cn(CC(=O)N4CCOCC4)nn3)CC2)n1 | 1170 nM | 89.4% | 13300 | 10 nM | 664 nM | 61 nM | 30500 nM | 2 nM | 1260 nM | – | – | – | 17 nM | 59 nM | 3 nM | – |
| COC(=O)CCCn1cc(CN2CCC(Nc3nccc(Oc4c(C)cc(C#N)cc4C)n3)CC2)nn1 | – | 90.7% | 2060 | – | – | – | 21300 nM | 10 nM | – | – | – | – | – | 56 nM | – | – |
| Cc1cc(/C=C/C#N)cc(C)c1Oc1nc(NC2CCN(Cc3cn(CC(=O)NC4CC4)nn3)CC2)nc2sccc12 | 84 nM | – | 3520 | 22 nM | 156 nM | 6 nM | 16900 nM | 5 nM | 38 nM | – | – | – | 16 nM | 214 nM | – | 3 |
| Cc1cc(C#N)cc(C)c1Oc1ccnc(NC2CCN(Cc3cn(Cc4ccc(S(N)(=O)=O)cc4)nn3)CC2)n1 | – | 89.3% | – | – | – | – | – | – | – | – | – | – | – | – | – | – |
| Cc1cc(C#N)cc(C)c1Oc1ccnc(NC2CCN(Cc3cn(Cc4ccccc4C#N)nn3)CC2)n1 | > 4240 nM | 91.3% | 2020 | 27 nM | 1040 nM | 231 nM | 4240 nM | 2 nM | 366 nM | – | – | – | 27 nM | – | 15 nM | – |
| Cc1cc(C#N)cc(C)c1Oc1ccnc(NC2CCN(Cc3cn(CC(=O)NC4CC4)nn3)CC2)n1 | 2630 nM | 93.4% | 12500 | 28 nM | 3270 nM | 150 nM | 31300 nM | 3 nM | 399 nM | – | – | – | 30 nM | 62 nM | 19 nM | – |
| Cc1cc(/C=C/C#N)cc(C)c1Oc1ccnc(NC2CCN(Cc3cn(Cc4ccc(B(O)O)cc4)nn3)CC2)n1 | 133 nM | 92.2% | 825 | 19 nM | 99 nM | 9 nM | 4620 nM | 6 nM | 78 nM | – | – | – | 11 nM | 96 nM | 4 nM | – |
| Cc1cc(C#N)cc(C)c1Oc1ccnc(NC2CCN(Cc3cn(CC(=O)Nc4ccc(S(C)(=O)=O)cc4)nn3)CC2)n1 | 3410 nM | 93.8% | 2690 | 31 nM | 2880 nM | 228 nM | 12200 nM | 5 nM | 260 nM | – | – | – | 34 nM | – | 16 nM | – |
| COC(=O)Cn1cc(CCNc2nccc(Oc3c(C)cc(/C=C/C#N)cc3C)n2)nn1 | – | 65.3% | – | – | – | – | – | – | – | – | – | – | – | – | – | – |
| Cc1cc(C#N)cc(C)c1Oc1ccnc(NC2CCN(Cc3cn(Cc4ccc(B(O)O)cc4)nn3)CC2)n1 | – | 89.8% | – | – | – | – | – | – | – | – | – | – | – | – | – | – |
| Cc1cc(C#N)cc(C)c1Oc1ccnc(NCCc2cn(Cc3ccc(Cl)cc3)nn2)n1 | – | 51.3% | – | – | – | – | – | – | – | – | – | – | – | – | – | – |
| Cc1cc(/C=C/C#N)cc(C)c1Oc1nc(NC2CCN(Cc3cn(CC(=O)NC4CC4)nn3)CC2)nc2ccccc12 | 232 nM | – | 4150 | 29 nM | 546 nM | 19 nM | 22400 nM | 5 nM | 58 nM | – | – | – | 41 nM | – | 9 nM | – |
